Like-named read-outs stand apart in the source and are kept apart here.
Assays:
mice [1] = assay: apomorphine hypothermia antagonism test; assay type: in vivo; conditions: for inhibition in vivo at 0.3 mg/kg / inhibition in vivo at 1 mg/kg / inhibition in vivo at 3 mg/kg / inhibition in vivo at 10 mg/kg: Mus musculus, read-out: Percent Antagonism Apomorphine Pre-30 min.; for inhibition in vivo at 0.3 mg/kg / inhibition in vivo at 1 mg/kg / inhibition in vivo at 3 mg/kg / inhibition in vivo at 10 mg/kg / Percent Antagonism Apomorphine Pre-30 min.: mice; for antagonism of apomorphine hypothermia: in words
Procedure: (§1) The apomorphine hypothermia antagonism test is carried out as follows: mice are injected with a dose of apomorphine known to reduce body temperature approximately 4° C. The compound under test is injected 1/2 hour before the injection of the apomorphine and the temperatures measured 1/2 hour after injection. The degree of antagonism is expressed as a percent reduction (as compared with controls) of the temperature decrease produced by the injection of the apomorphine. The reserpine hypothermia reversal test is carried out as follows: groups of mice are injected with reserpine and 16.5 hours later are injected intraperitoneally with graded doses of the drug, a different dose level being given to each group of mice. Temperatures are measured at 1 hour after injection of the drug under test and again the effectiveness of the drug is expressed as a percentage decrease in the hypothermia induced by the injection of reserpine as compared with the control group. In the tables which follow, Table 4 gives the results in the apomorphine antagonism and reserpine reversal hypothermia tests for the secondary amines of this invention. In the table, the first column gives the substituent attached to the oxygen atom at the 3 position of the propylamine chain; columns 2 to 4 the percent antagonism against apomorphine hypothermia at dose levels of 0.3, 1 and 3 mg./kg. and columns 5-7 the percent reversal of reserpine hypothermia at the same dose levels.

[2] = system: dopamine uptake by synaptosomes from rat brain; assay: blockage of dopamine uptake by synaptosomes from rat brain; assay type: biochemical; conditions: Table 1, dopamine 0.2 μM
Description: (§2) This blockade is shown both in vitro with radioactive labelled compounds to determine the amount of monoamine uptake by synaptosomes from rat brain, and in vivo by a variety of methods. Among the physiologically active monoamines whose uptake is blocked by the compounds of this invention are included serotonin, norepinephrine and dopamine (3,4-dihydroxyphenylethylamine). […] Tables 1 and 2 which follow set forth the results of some of the in vitro determinations of the blockage of monoamine uptake by the compounds of this invention. In the tables, column 1 gives the R substituent on the 3-phenylpropylamine and columns 2-4, the concentration in micrograms per ml. that blocks the uptake of a particular amine by 50 percent for the amines--norephinephrine, serotonin, and dopamine. At the head of each column is given the concentration of the particular monoamine used in the experiment.

[3] = system: serotonin uptake by synaptosomes from rat brain; assay: blockage of serotonin uptake by synaptosomes from rat brain; assay type: biochemical; conditions: Table 1, serotonin 0.1 μM
Description: In the tables, column 1 gives the R substituent on the 3-phenylpropylamine and columns 2-4, the concentration in micrograms per ml. that blocks the uptake of a particular amine by 50 percent for the amines--norephinephrine, serotonin, and dopamine. At the head of each column is given the concentration of the particular monoamine used in the experiment.

[4] = system: norepinephrine uptake by synaptosomes from rat brain; assay: blockage of norepinephrine uptake by synaptosomes from rat brain; assay type: biochemical; conditions: Table 1, norepinephrine 0.48 μM
Description: as §2

mice [5] = assay: reserpine hypothermia reversal test; assay type: in vivo; conditions: for reversal of reserpine hypothermia: in words
Procedure: as §1

[6] = Table 4, mice, 1 mg./kg. intraperitoneally
[7] = Table 4, mice, 3 mg./kg. intraperitoneally
[8] = Table 5, mice, 1 mg./kg. intraperitoneally
[9] = Table 5, mice, 3 mg./kg. intraperitoneally
[10] = Table 5, mice, 10 mg./kg. intraperitoneally

Row | SMILES | Concentration in mcg./ml. that blocks 50% of amine uptake, Dopamine [2] | Concentration in mcg./ml. that blocks 50% of amine uptake, Serotonin [3] | Concentration in mcg./ml. that blocks 50% of amine uptake, Norepinephrine [4] | Percent Antagonism Apomorphine Pre-30 min. (mice [1]; Table 5, 3 mg./kg.) [%] | Percent Antagonism Apomorphine Pre-30 min. (mice [1]; Table 5, 10 mg./kg.) [%] | Percent Antagonism Reserpine Post-60 min. (mice [5]; [10]) [%] | also measured
1 | CN(C)CCC(Oc1ccc(F)cc1F)c1ccccc1 (centres unmarked) [2,4-difluorophenyl, N,N-dimethyl 3-(2',4'-difluorophenoxy)-3-phenylpropylamine] | 10 µg/mL | .3 µg/mL | .2 µg/mL |  |  |  | inhibition in vivo at 0.3 mg/kg (mice [1]; Table 4, 0.3 mg./kg.): 20%; inhibition in vivo at 1 mg/kg (mice [1]; Table 4, 1 mg./kg.): 53%; inhibition in vivo at 3 mg/kg (mice [1]; Table 4, 3 mg./kg.): 64%; inhibition in vivo at 1 mg/kg (mice [1]; Table 5, 1 mg./kg.): 26%; inhibition in vivo at 3 mg/kg (mice [1]; Table 5, 3 mg./kg.): 55%; inhibition in vivo at 10 mg/kg (mice [1]; Table 5, 10 mg./kg.): 98%
2 | Cc1cc(F)ccc1OC(CCN(C)C)c1ccccc1 (centres unmarked) [4-fluoro-o-tolyl, N,N-dimethyl 3-(p-fluoro-o-tolyloxy)-3-phenylpropylamine] | 40 µg/mL | .6 µg/mL | 2.5 µg/mL |  |  |  | 
3 | CN(C)CCCN1c2ccccc2CCc2ccccc21 [imipramine, reference compound] |  |  |  |  |  |  | antagonism of apomorphine hypothermia (mice [1]): active; reversal of reserpine hypothermia (mice [5]): active
4 | CNCCC(Oc1cccc(OC)c1)c1ccccc1 (centres unmarked) [m-anisyl, N-methyl 3-phenyl-3-(m-methoxyphenoxy)propylamine] |  |  |  | -7 | -5 | 5 | Percent Antagonism Apomorphine Pre-30 min. (mice [1]; Table 4, 0.3 mg./kg.): 15%; Percent Antagonism Apomorphine Pre-30 min. (mice [1]; Table 4, 1 mg./kg.): 15%; Percent Antagonism Apomorphine Pre-30 min. (mice [1]; Table 4, 3 mg./kg.): 71%; Percent Antagonism Apomorphine Pre-30 min. (mice [1]; Table 5, 1 mg./kg.): -12%; Percent Antagonism Reserpine Post-60 min. (mice [5]; Table 4, mice, 0.3 mg./kg. intraperitoneally): 8%; Percent Antagonism Reserpine Post-60 min. (mice [5]; [6]): 21%; Percent Antagonism Reserpine Post-60 min. (mice [5]; [7]): 21%; Percent Antagonism Reserpine Post-60 min. (mice [5]; [8]): -1%; Percent Antagonism Reserpine Post-60 min. (mice [5]; [9]): 6%
5 | COc1cccc(OC(CCN(C)C)c2ccccc2)c1 (centres unmarked) [m-methoxyphenyl, N,N-dimethyl 3-phenyl-3-(m-methoxyphenoxy)propylamine] | .5 µg/mL | .08 µg/mL | .2 µg/mL |  |  |  | 
6 | Cc1cccc(OC(CCN(C)C)c2ccccc2)c1 (centres unmarked) [m-tolyl, N,N-dimethyl 3-phenyl-3-(m-tolyloxy)propylamine] |  | .7 µg/mL | 12 µg/mL |  |  |  | 
7 | CN(C)CCC(Oc1cccc(C(F)(F)F)c1)c1ccccc1 (centres unmarked) [m-trifluoromethylphenyl, N,N-dimethyl 3-phenyl-3-(m-trifluoromethylphenoxy) propylamine] | > 100 µg/mL | .18 µg/mL | 8 µg/mL |  |  |  | 
8 | CNCCC=C1c2ccccc2CCc2ccccc21 [nortriptyline, reference compound] |  |  |  |  |  |  | antagonism of apomorphine hypothermia (mice [1]): active; reversal of reserpine hypothermia (mice [5]): active
9 | C=CCc1ccccc1OC(CCN(C)C)c1ccccc1 (centres unmarked) [o-allylphenyl, N,N-dimethyl 3-phenyl-3-(o-allylphenoxy)propylamine] |  |  |  |  |  |  | inhibition in vivo at 3 mg/kg (mice [1]; Table 5, 3 mg./kg.): 11%; inhibition in vivo at 10 mg/kg (mice [1]; Table 5, 10 mg./kg.): 67%
10 | CN(C)CCC(Oc1ccccc1Br)c1ccccc1 (centres unmarked) [o-bromophenyl, N,N-dimethyl 3-(o-bromophenoxy)-3-phenylpropylamine] | 5 µg/mL | .1 µg/mL |  | 40 | 47 | 30 | Percent Antagonism Apomorphine Pre-30 min. (mice [1]; Table 5, 1 mg./kg.): 19%; Percent Antagonism Reserpine Post-60 min. (mice [5]; [9]): 18%
11 | CN(C)CCC(Oc1ccccc1Cl)c1ccccc1 (centres unmarked) [o-chlorophenyl, N,N-dimethyl 3-(o-chlorophenoxy)-3-phenylpropylamine] | .2 µg/mL | .2 µg/mL | .45 µg/mL | -17 | 57 | 25 | Percent Antagonism Apomorphine Pre-30 min. (mice [1]; Table 5, 1 mg./kg.): -10%; Percent Antagonism Reserpine Post-60 min. (mice [5]; [8]): 3%; Percent Antagonism Reserpine Post-60 min. (mice [5]; [9]): 4%
12 | CCc1ccccc1OC(CCN(C)C)c1ccccc1 (centres unmarked) [o-ethylphenyl, N,N-dimethyl 3-(o-ethylphenoxy)-3-phenylpropylamine] | > 100 µg/mL | 3.5 µg/mL | > 100 µg/mL | 20 | 74 | 35 | Percent Antagonism Reserpine Post-60 min. (mice [5]; [8]): 17%; Percent Antagonism Reserpine Post-60 min. (mice [5]; [9]): 13%
13 | CN(C)CCC(Oc1ccccc1F)c1ccccc1 (centres unmarked) [o-fluorophenyl] |  |  |  |  |  |  | inhibition in vivo at 10 mg/kg (mice [1]; Table 5, 10 mg./kg.): 3%
14 | CC(C)c1ccccc1OC(CCN(C)C)c1ccccc1 (centres unmarked) [o-isopropylphenyl] | > 100 µg/mL | > 100 µg/mL | 1.5 µg/mL |  |  |  | inhibition in vivo at 1 mg/kg (mice [1]; Table 5, 1 mg./kg.): 17%; inhibition in vivo at 3 mg/kg (mice [1]; Table 5, 3 mg./kg.): 39%; inhibition in vivo at 10 mg/kg (mice [1]; Table 5, 10 mg./kg.): 65%; inhibition in vivo at 0.3 mg/kg (mice [1]; Table 5, .3 mg./kg.): 3%
15 | CCOc1ccccc1OC(CCN(C)C)c1ccccc1 (centres unmarked) [o-phenetyl, N,N-dimethyl 3-(o-ethoxyphenoxy)-3-phenylpropylamine] | > 100 µg/mL | 6 µg/mL | 3 µg/mL | 13 | 76 | 40 | Percent Antagonism Reserpine Post-60 min. (mice [5]; [9]): 16%
16 | CN(C)CCC(Oc1ccccc1C(C)(C)C)c1ccccc1 (centres unmarked) [o-t-butylphenyl, N,N-dimethyl 3-phenyl-3-(o-t-butylphenoxy)propylamine] | > 100 µg/mL | 40 µg/mL | 1.5 µg/mL |  |  |  | 
17 | CN(C)CCC(Oc1ccccc1C(F)(F)F)c1ccccc1 (centres unmarked) [o-trifluoromethylphenyl, N,N-dimethyl 3-(o-trifluoromethylphenoxy)-3-phenylpropylamine] |  | .16 µg/mL | 70 µg/mL | 32 | 55 | 10 | Percent Antagonism Apomorphine Pre-30 min. (mice [1]; Table 4, 1 mg./kg.): 13%; Percent Antagonism Apomorphine Pre-30 min. (mice [1]; Table 4, 3 mg./kg.): 28%; Percent Antagonism Apomorphine Pre-30 min. (mice [1]; Table 5, 1 mg./kg.): 21%; Percent Antagonism Reserpine Post-60 min. (mice [5]; [6]): 9%; Percent Antagonism Reserpine Post-60 min. (mice [5]; [7]): 8%
18 | COc1ccc(OC(CCN(C)C)c2ccccc2)cc1 (centres unmarked) [p-anisyl] |  |  |  |  |  |  | inhibition in vivo at 3 mg/kg (mice [1]; Table 5, 3 mg./kg.): 25%; inhibition in vivo at 3 mg/kg (mice [5]; Mus musculus, ip, 1 h, Table 5, mice, 3 mg./kg. intraperitoneally, read-out: Percent Antagonism Reserpine Post-60 min.): 67%
19 | CN(C)CCC(Oc1ccc2ccccc2c1)c1ccccc1 (stereo not drawn) [β-naphthyl, N,N-dimethyl 3-(β-naphthyloxy)-3-phenylpropylamine] | > 100 µg/mL | 1 µg/mL | > 100 µg/mL |  |  |  | 

Reference: patent publication US4194009A, “Aryloxyphenylpropylamines for obtaining a psychotropic effect” (Eli Lilly and Company, priority 1976, dated 1980)
